From publication PMC10215740 (Antibiotics, 2023)
Where “and” joins values, the source holds several entries; their conditions need not be identical. Equal entries are not always repeated.

Tests used:
[1] = Time with concentration above MIC targets (T>MIC, %T>MIC) in plasma and spinal tissues, microdialysis porcine model; assay type: in vivo, pigs (Danish Landrace breed)
Source text: (§1) Eight female pigs (Danish Landrace breed, weight 78–82 kg) were included. In general anaesthesia, microdialysis catheters were placed in the third cervical (C3) vertebral cancellous bone, the C3-C4 intervertebral disc, paravertebral muscle, and adjacent subcutaneous tissue. Plasma samples were obtained as a reference. Abiding by the recommendations of replacement, reduction, and refinement (the 3 Rs) when conducting animal studies, the data sampled in extrathecal spinal tissues in the present study are derived from animals where lower extremity data were reported previously. […] The dose and mode of administration used were in accordance with the clinical practice at our institution. Sampling was conducted for 8 h.
(§2) (Figure 3). The microdialysis catheters used were CMA 70 (membrane length 10 and 20 mm, molecular mass cut of 20 kDa; M Dialysis AB, Stockholm, Sweden). Through an anterolateral approach, the C2, C3, and C4 vertebrae were exposed. Using a 2 mm drill, a 25 mm drill hole was made into the C3 vertebra in which a 20 mm microdialysis catheter was placed. Afterward, with aid from a splitable microdialysis introducer (M Dialysis AB, Stockholm, Sweden), a 10 mm microdialysis catheter was positioned in the C3-C4 intervertebral disc, and a 20 mm microdialysis catheter was positioned in both the exposed paravertebral muscle and adjacent subcutaneous tissue. Correct positioning of the microdialysis catheters in the vertebra and the intervertebral disc was verified by fluoroscopy. The catheters were connected to precision pumps (CMA 107; M Dialysis AB, Stockholm, Sweden) and perfused with 0.9% NaCl solution at a flow rate of 1 μL/min.
(§3) After catheter placement, microdialysis sampling was initiated with a tissue-equilibration period of 20 min prior to the antibiotic intravenous administration. […] Microdialysates were collected at 30 min intervals for the first 4 h, and at 60 min intervals for the last 4 h, resulting in a total of 12 samples during an 8-h dosing interval. At the midpoint of each sampling interval, blood samples were collected from a central venous catheter for reference. The blood samples were stored at 5 °C for a maximum of 6 h before being centrifuged (room temperature, 3000 g, 10 min), and plasma aliquots were made. […] The recovery sample was later used for individual catheter calibration and calculation of absolute tissue concentrations. All collected samples were stored at –80 °C until the chemical analyses were performed; microdialysate analyses were performed at the Department of Forensic Medicine, Aarhus University, Denmark, and plasma aliquot analyses were performed at the Department of Clinical Biochemistry, Aarhus University Hospital, Aarhus, Denmark.
(§4) The free drug concentration of meropenem in plasma was quantified using ultra-high performance liquid chromatography (UHPLC).
(§5) The area under the concentration–time curves from zero to the last measured value (AUC0-8h) was calculated using the trapezoidal rule. The Cmax was calculated as the maximum concentration of all the recorded concentrations, and the Tmax was calculated as the time to achieve Cmax. As a measure of tissue penetration, the ratio of tissue AUC to plasma AUC (AUCtissue/AUCplasma) was calculated. A general comparison of the T>MIC and the pharmacokinetic parameters was conducted using repeated measurements of the analysis of variance (ANOVA), followed by pairwise comparisons made by linear regression. Because of a small sample size, it was necessary to conduct a correction for the degrees of freedom by the Kenward–Roger approximation method. Using the visual diagnosis of residuals, fitted values and estimates of random-effects model assumptions were tested. A p-value of less than 0.05 was considered significant.

[2] = Plasma and spinal tissue pharmacokinetics by microdialysis after single-dose co-administered i.v. meropenem and vancomycin; details: free drug, single i.v. 1000 mg meropenem + 1000 mg vancomycin co-administered, mean (95%CI)
Source text: as §1, §2, §3, §4, §5

[3] = intervertebral disc, microdialysis, pigs, one disc catheter malfunctioned
[4] = paravertebral muscle, microdialysis, pigs n = 8
[5] = subcutaneous tissue, microdialysis, pigs n = 8
[6] = vertebral cancellous bone, microdialysis, pigs n = 8

Compound: C[C@@H](O)[C@H]1C(=O)N2C(C(=O)O)=C(S[C@@H]3CN[C@H](C(=O)N(C)C)C3)[C@H](C)[C@H]12 [Meropenem, meropenem]
- Mean T>MIC (min) ([1]; meropenem MIC 0.125 μg/mL (low), C3-C4 intervertebral disc, microdialysis, UHPLC-MS/MS, pigs, one disc catheter malfunctioned, single i.v. 1000 mg co-administered with vancomycin, mean): 366 (335; 396) min
- Mean T>MIC (min) ([1]; meropenem MIC 0.125 μg/mL (low), C3 vertebral cancellous bone, microdialysis, UHPLC-MS/MS, pigs n = 8, single i.v. 1000 mg co-administered with vancomycin, mean): 244 (215; 272) min
- Mean %T>MIC ([1]; meropenem MIC 0.125 μg/mL (low), intervertebral disc, microdialysis, percentage of dosing interval of 450 min, pigs, single i.v. 1000 mg): 81 (74; 88) %
- Mean T>MIC (min) ([1]; meropenem MIC 0.125 μg/mL (low), paravertebral muscle, microdialysis, UHPLC-MS/MS, pigs n = 8, single i.v. 1000 mg co-administered with vancomycin, mean): 285 (256; 314) min
- Mean %T>MIC ([1]; meropenem MIC 0.125 μg/mL (low), paravertebral muscle, microdialysis, percentage of dosing interval of 450 min, pigs n = 8, single i.v. 1000 mg): 63 (57; 70) %
- Mean T>MIC ([1]; meropenem MIC 0.125 μg/mL (low), plasma, free drug, UHPLC, pigs n = 8, single i.v. 1000 mg over 10 min co-administered with vancomycin 1000 mg, linear interpolation, mean): 406 min
- Mean %T>MIC ([1]; meropenem MIC 0.125 μg/mL (low), plasma, percentage of dosing interval of 450 min, pigs n = 8, single i.v. 1000 mg co-administered with vancomycin): 90%
- Mean T>MIC (min) ([1]; meropenem MIC 0.125 μg/mL (low), subcutaneous tissue, microdialysis, UHPLC-MS/MS, pigs n = 8, single i.v. 1000 mg co-administered with vancomycin, mean): 334 (305; 363) min
- Mean %T>MIC ([1]; meropenem MIC 0.125 μg/mL (low), subcutaneous tissue, microdialysis, percentage of dosing interval of 450 min, pigs n = 8, single i.v. 1000 mg): 74 (68; 81) %
- Mean %T>MIC ([1]; meropenem MIC 0.125 μg/mL (low), vertebral cancellous bone, microdialysis, percentage of dosing interval of 450 min, pigs n = 8, single i.v. 1000 mg): 54 (48; 61) %
- %T>MIC ([1]; meropenem low MIC target (0.125 µg/mL), all the investigated compartments, 8-h dosing interval, pigs, single i.v. 1000 mg): ≥ 54%
- %T>MIC ([1]; pig, in vivo): 25–36%
- Mean %T>MIC ([1]; pig, in vivo): 36 (33; 40) %
- Mean T>MIC (min) ([1]; pig, in vivo): 163 (147; 180) min
- %T>MIC ([1]; pig, in vivo, iv): ≤ 40%
- Mean %T>MIC ([1]; pig, in vivo, iv): 40% and 26 (22; 30) % and 25 (22; 29) % and 35 (31; 39) %
- Mean T>MIC ([1]; pig, in vivo, iv): 181 min
- Mean T>MIC (min) ([1]; pig, in vivo, iv): 118 (101; 134) min and 114 (98; 131) min and 158 (141; 175) min
- %T>MIC ([1]; pig, in vivo, iv, listed as meropenem): 25–90%

Compound: CN[C@H](CC(C)C)C(=O)N[C@H]1C(=O)N[C@@H](CC(N)=O)C(=O)N[C@H]2C(=O)N[C@H]3C(=O)N[C@H](C(=O)N[C@H](C(=O)O)c4cc(O)cc(O)c4-c4cc3ccc4O)[C@H](O)c3ccc(c(Cl)c3)Oc3cc2cc(c3O[C@@H]2O[C@H](CO)[C@@H](O)[C@H](O)[C@H]2O[C@H]2C[C@](C)(N)[C@H](O)[C@H](C)O2)Oc2ccc(cc2Cl)[C@H]1O [Vancomycin, vancomycin]
- Mean %T>MIC ([1]; vancomycin MIC 1 μg/mL (low), intervertebral disc, microdialysis, percentage of dosing interval of 450 min, pigs, single i.v. 1000 mg): 69%
- Mean T>MIC ([1]; vancomycin MIC 1 μg/mL (low), intervertebral disc, microdialysis, pigs, one disc catheter malfunctioned, single i.v. 1000 mg co-administered with meropenem, mean): 311 min
- Mean %T>MIC ([1]; vancomycin MIC 1 μg/mL (low), paravertebral muscle, microdialysis, percentage of dosing interval of 450 min, pigs n = 8, single i.v. 1000 mg): 96%
- Mean T>MIC ([1]; vancomycin MIC 1 μg/mL (low), paravertebral muscle, microdialysis, pigs n = 8, single i.v. 1000 mg co-administered with meropenem, mean): 433 min
- Mean T>MIC ([1]; vancomycin MIC 1 μg/mL (low), plasma, free drug, enzyme immunoassay, pigs n = 8, single i.v. 1000 mg over 100 min co-administered with meropenem 1000 mg, linear interpolation, mean): 449 min
- Mean %T>MIC ([1]; vancomycin MIC 1 μg/mL (low), plasma, percentage of dosing interval of 450 min, pigs n = 8, single i.v. 1000 mg): 100%
- Mean T>MIC ([1]; vancomycin MIC 1 μg/mL (low), subcutaneous tissue, microdialysis, UHPLC-MS/MS, pigs n = 8, single i.v. 1000 mg co-administered with meropenem, mean): 435 min
- Mean %T>MIC ([1]; vancomycin MIC 1 μg/mL (low), subcutaneous tissue, microdialysis, percentage of dosing interval of 450 min, pigs n = 8, single i.v. 1000 mg): 97%
- Mean %T>MIC ([1]; vancomycin MIC 1 μg/mL (low), vertebral cancellous bone, microdialysis, percentage of dosing interval of 450 min, pigs n = 8, single i.v. 1000 mg): 86%
- Mean T>MIC ([1]; vancomycin MIC 1 μg/mL (low), vertebral cancellous bone, microdialysis, pigs n = 8, single i.v. 1000 mg co-administered with meropenem, mean): 388 min
- Mean %T>MIC ([1]; vancomycin MIC 4 μg/mL (high), intervertebral disc, microdialysis, percentage of dosing interval of 450 min, pigs, single i.v. 1000 mg): 10%
- Mean T>MIC ([1]; vancomycin MIC 4 μg/mL (high), intervertebral disc, microdialysis, pigs, one disc catheter malfunctioned, single i.v. 1000 mg co-administered with meropenem, mean): 45 min
- Mean T>MIC ([1]; vancomycin MIC 4 μg/mL (high), paravertebral muscle, microdialysis, pigs n = 8, single i.v. 1000 mg co-administered with meropenem, mean): 306 min
- Mean T>MIC ([1]; vancomycin MIC 4 μg/mL (high), plasma, free drug, pigs n = 8, single i.v. 1000 mg co-administered with meropenem, mean): 446 min
- Mean %T>MIC ([1]; vancomycin MIC 4 μg/mL (high), plasma, percentage of dosing interval of 450 min, pigs n = 8, single i.v. 1000 mg): 99%
- Mean %T>MIC ([1]; vancomycin MIC 4 μg/mL (high), subcutaneous tissue, microdialysis, percentage of dosing interval of 450 min, pigs n = 8, single i.v. 1000 mg): 81%
- Mean T>MIC ([1]; vancomycin MIC 4 μg/mL (high), subcutaneous tissue, microdialysis, pigs n = 8, single i.v. 1000 mg co-administered with meropenem, mean): 365 min
- Mean %T>MIC ([1]; vancomycin MIC 4 μg/mL (high), vertebral cancellous bone, microdialysis, percentage of dosing interval of 450 min, pigs n = 8, single i.v. 1000 mg): 47%
- Mean T>MIC ([1]; vancomycin MIC 4 μg/mL (high), vertebral cancellous bone, microdialysis, pigs n = 8, single i.v. 1000 mg co-administered with meropenem, mean): 214 min
- %T>MIC ([1]; vancomycin high MIC target (4 µg/mL), all solid tissue compartments, 8-h dosing interval, pigs, single i.v. 1000 mg): ≤ 81%
- %T>MIC ([1]; vancomycin low MIC target (1 µg/mL), all the investigated compartments, 8-h dosing interval, pigs, single i.v. 1000 mg): ≥ 69%
- %T>MIC ([1]; vancomycin, range across all targeted tissues and plasma and both MIC targets (1 and 4 µg/mL), pigs, single i.v. 1000 mg): 10–100%
- AUC0-8h [2, 3]: 877 (−325; 2079) min μg/mL
- Cmax [2, 3]: 3 (−3; 10) μg/mL
- AUC0-8h [2, 4]: 2538 (1379; 3698) min μg/mL
- Cmax [2, 4]: 11 (5; 17) μg/mL
- Cmax ([2]; plasma, pigs n = 8): 35 (29; 41) μg/mL
- AUC0-8h [2, 5]: 3767 (2608; 4927) min μg/mL
- Cmax [2, 5]: 17 (11; 23) μg/mL
- AUC0-8h [2, 6]: 1698 (539; 2858) min μg/mL
- Cmax [2, 6]: 6 (0.4; 12) μg/mL
